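Here, GI50 denotes the concentration required for 50% inhibition of growth. TGI is the concentration that stops growth completely.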
Tests used:
Assay in all cases: inhibition of tumour cell growth, NCI panel, 384-well format
COLO 205 colon = tested on: COLO 205 colon
HS 578T breast = tested on: HS 578T breast
SF-295 CNS = tested on: SF-295 CNS
K-562 leukemia = tested on: K-562 leukemia
MCF7 breast = tested on: MCF7 breast
SNB-19 CNS = tested on: SNB-19 CNS
NCI-H226 lung = tested on: NCI-H226 lung
CCRF-CEM leukemia = tested on: CCRF-CEM leukemia
NCI-H460 NSCLC = tested on: NCI-H460 NSCLC
HOP-92 NSCLC = tested on: HOP-92 NSCLC
SK-MEL-5 melanoma = tested on: SK-MEL-5 melanoma
A549 NSCLC = tested on: A549 NSCLC
MDA-MB-468 breast = tested on: MDA-MB-468 breast
SN12C renal = tested on: SN12C renal
NCI/ADR-RES ovarian = tested on: NCI/ADR-RES ovarian
SK-OV-3 ovarian = tested on: SK-OV-3 ovarian
UACC-62 melanoma = tested on: UACC-62 melanoma
IGROV1 ovarian = tested on: IGROV1 ovarian
MALME-3M melanoma = tested on: MALME-3M melanoma
HCT-116 colon = tested on: HCT-116 colon
SNB-75 CNS = tested on: SNB-75 CNS
MOLT-4 leukemia = tested on: MOLT-4 leukemia
EKVX NSCLC = tested on: EKVX NSCLC
NCI-H322M lung = tested on: NCI-H322M lung
HCT-15 colon = tested on: HCT-15 colon
A498 renal = tested on: A498 renal
SW-620 colon = tested on: SW-620 colon
ACHN renal = tested on: ACHN renal
HL-60(TB) leukemia = tested on: HL-60(TB) leukemia
RXF 393 renal = tested on: RXF 393 renal
SK-MEL-2 melanoma = tested on: SK-MEL-2 melanoma
M14 melanoma = tested on: M14 melanoma
LOX IMVI melanoma = tested on: LOX IMVI melanoma
SF-268 CNS = tested on: SF-268 CNS
HCC-2998 colon = tested on: HCC-2998 colon
MDA-MB-435 melanoma = tested on: MDA-MB-435 melanoma
OVCAR-3 ovarian = tested on: OVCAR-3 ovarian
KM12 colon = tested on: KM12 colon
CAKI-1 renal = tested on: CAKI-1 renal
U251 glioblastoma = tested on: U251 glioblastoma
OVCAR-4 ovarian = tested on: OVCAR-4 ovarian
TK-10 renal = tested on: TK-10 renal
SK-MEL-28 melanoma = tested on: SK-MEL-28 melanoma
HT29 colon = tested on: HT29 colon
RPMI-8226 leukemia = tested on: RPMI-8226 leukemia
786-0 renal = tested on: 786-0 renal
UACC-257 melanoma = tested on: UACC-257 melanoma
BT-549 breast = tested on: BT-549 breast
PC-3 prostate = tested on: PC-3 prostate
NCI-H522 lung = tested on: NCI-H522 lung
OVCAR-8 ovarian = tested on: OVCAR-8 ovarian
NCI-H23 lung = tested on: NCI-H23 lung
DU-145 prostate = tested on: DU-145 prostate
SF-539 CNS = tested on: SF-539 CNS
HOP-62 NSCLC = tested on: HOP-62 NSCLC
T-47D breast = tested on: T-47D breast
OVCAR-5 ovarian = tested on: OVCAR-5 ovarian
UO-31 renal = tested on: UO-31 renal

**Q.** What does the source list for `COc1cc(OC)c(C(=O)C(CN(C)C)CN(C)C)cc1OC`?
**A.** GI50 (COLO 205 colon): 0.696 µM; TGI (COLO 205 colon): 1.96 µM; GI50 (HS 578T breast): 7.53 µM; TGI (HS 578T breast): 19.8 µM; GI50 (SF-295 CNS): 19.2 µM; TGI (SF-295 CNS): 39.3 µM; GI50 (K-562 leukemia): 6 µM; TGI (K-562 leukemia): 18.1 µM; GI50 (MCF7 breast): 1.83 µM; TGI (MCF7 breast): 3.77 µM; GI50 (SNB-19 CNS): 14.4 µM; TGI (SNB-19 CNS): 27.7 µM; GI50 (NCI-H226 lung): 1.91 µM; TGI (NCI-H226 lung): 4.42 µM; GI50 (CCRF-CEM leukemia): 0.369 µM; TGI (CCRF-CEM leukemia): 1.38 µM; GI50 (NCI-H460 NSCLC): 2.75 µM; TGI (NCI-H460 NSCLC): 6.41 µM; GI50 (HOP-92 NSCLC): 2.12 µM; TGI (HOP-92 NSCLC): 3.66 µM; GI50 (SK-MEL-5 melanoma): 5.64 µM; TGI (SK-MEL-5 melanoma): 18.4 µM; GI50 (A549 NSCLC): 14.1 µM; TGI (A549 NSCLC): 27.6 µM; GI50 (MDA-MB-468 breast): 0.317 µM; TGI (MDA-MB-468 breast): 0.697 µM; GI50 (SN12C renal): 1.81 µM; TGI (SN12C renal): 3.58 µM; GI50 (NCI/ADR-RES ovarian): 2.12 µM; TGI (NCI/ADR-RES ovarian): 4.11 µM; GI50 (SK-OV-3 ovarian): 16.9 µM; TGI (SK-OV-3 ovarian): 30.7 µM; GI50 (UACC-62 melanoma): 2.06 µM; TGI (UACC-62 melanoma): 4.4 µM; GI50 (IGROV1 ovarian): 2.06 µM; TGI (IGROV1 ovarian): 4.43 µM; GI50 (MALME-3M melanoma): 0.999 µM; TGI (MALME-3M melanoma): 2.17 µM; GI50 (HCT-116 colon): 1.41 µM; TGI (HCT-116 colon): 2.82 µM; GI50 (SNB-75 CNS): 19.8 µM; TGI (SNB-75 CNS): 34.1 µM; GI50 (MOLT-4 leukemia): 0.225 µM; TGI (MOLT-4 leukemia): 0.591 µM; GI50 (EKVX NSCLC): 10.4 µM; TGI (EKVX NSCLC): 22.3 µM; GI50 (NCI-H322M lung): 18.4 µM; TGI (NCI-H322M lung): 32.5 µM; GI50 (HCT-15 colon): 1.49 µM; TGI (HCT-15 colon): 2.88 µM; GI50 (A498 renal): 12.5 µM; TGI (A498 renal): 25.1 µM; GI50 (SW-620 colon): 1.14 µM; TGI (SW-620 colon): 2.44 µM; GI50 (ACHN renal): 1.41 µM; TGI (ACHN renal): 2.74 µM; GI50 (HL-60(TB) leukemia): 0.146 µM; TGI (HL-60(TB) leukemia): 0.279 µM; GI50 (RXF 393 renal): 1.92 µM; TGI (RXF 393 renal): 3.44 µM; GI50 (SK-MEL-2 melanoma): 1.7 µM; TGI (SK-MEL-2 melanoma): 3.67 µM; GI50 (M14 melanoma): 2.16 µM; TGI (M14 melanoma): 4.3 µM; GI50 (LOX IMVI melanoma): 6.55 µM; TGI (LOX IMVI melanoma): 19.9 µM; GI50 (SF-268 CNS): 17.2 µM; TGI (SF-268 CNS): 31.1 µM; GI50 (HCC-2998 colon): 4.8 µM; TGI (HCC-2998 colon): 18.6 µM; GI50 (MDA-MB-435 melanoma): 3.27 µM; TGI (MDA-MB-435 melanoma): 8.94 µM; GI50 (OVCAR-3 ovarian): 1.71 µM; TGI (OVCAR-3 ovarian): 3.37 µM; GI50 (KM12 colon): 3.64 µM; TGI (KM12 colon): 9.17 µM; GI50 (CAKI-1 renal): 1.02 µM; TGI (CAKI-1 renal): 2.22 µM; GI50 (U251 glioblastoma): 7.75 µM; TGI (U251 glioblastoma): 20 µM; GI50 (OVCAR-4 ovarian): 1.81 µM; TGI (OVCAR-4 ovarian): 3.21 µM; GI50 (TK-10 renal): 1.54 µM; TGI (TK-10 renal): 3.04 µM; GI50 (SK-MEL-28 melanoma): 3.32 µM; TGI (SK-MEL-28 melanoma): 7.76 µM; GI50 (HT29 colon): 3.42 µM; TGI (HT29 colon): 12.9 µM; GI50 (RPMI-8226 leukemia): 0.419 µM; TGI (RPMI-8226 leukemia): 1.14 µM; GI50 ([…]-0 renal): 2.27 µM; TGI (786-0 renal): 4.92 µM; GI50 (UACC-257 melanoma): 1.41 µM; TGI (UACC-257 melanoma): 2.81 µM; GI50 (BT-549 breast): 3.06 µM; TGI (BT-549 breast): 8.06 µM; GI50 (PC-3 prostate): 3 µM; TGI (PC-3 prostate): 7.62 µM; GI50 (NCI-H522 lung): 0.382 µM; TGI (NCI-H522 lung): 1.57 µM; GI50 (OVCAR-8 ovarian): 1.44 µM; TGI (OVCAR-8 ovarian): 2.84 µM; GI50 (NCI-H23 lung): 2.17 µM; TGI (NCI-H23 lung): 4.18 µM; GI50 (DU-145 prostate): 4.56 µM; TGI (DU-145 prostate): 15 µM; GI50 (SF-539 CNS): 1.6 µM; TGI (SF-539 CNS): 3.06 µM; GI50 (HOP-62 NSCLC): 22 µM; TGI (HOP-62 NSCLC): 36.6 µM

**Q.** How did the GI50 (SF-295 CNS) turn out when `S=P(N1CC1)(N1CC1)N1CC1` was run?
**A.** 11.3 µM

**Q.** And the TGI (SF-295 CNS)?
**A.** 31.3 µM

**Q.** And the GI50 (K-562 leukemia)?
**A.** 74 µM

**Q.** And the GI50 (MCF7 breast)?
**A.** 21.2 µM

**Q.** And the GI50 (SNB-19 CNS)?
**A.** 41.6 µM

**Q.** What about the GI50 (NCI-H226 lung) of the same compound?
**A.** 61.3 µM

**Q.** What about the GI50 (CCRF-CEM leukemia) of the same compound?
**A.** 4.2 µM

**Q.** And the TGI (CCRF-CEM leukemia)?
**A.** 11 µM

**Q.** And the GI50 (A549 NSCLC)?
**A.** 38.4 µM

**Q.** And the GI50 (MDA-MB-468 breast)?
**A.** 3.58 µM

**Q.** And the TGI (MDA-MB-468 breast)?
**A.** 18.7 µM

**Q.** What about the GI50 (SN12C renal) of the same compound?
**A.** 9.52 µM

**Q.** And the GI50 (NCI/ADR-RES ovarian)?
**A.** 30.1 µM

**Q.** And the GI50 (SK-OV-3 ovarian)?
**A.** 29.8 µM

**Q.** And the GI50 (UACC-62 melanoma)?
**A.** 11 µM

**Q.** And the GI50 (HCT-116 colon)?
**A.** 34.1 µM

**Q.** And the GI50 (SNB-75 CNS)?
**A.** 22 µM

**Q.** What about the GI50 (MOLT-4 leukemia) of the same compound?
**A.** 0.4 µM

**Q.** And the TGI (MOLT-4 leukemia)?
**A.** 1.49 µM

**Q.** What about the GI50 (T-47D breast) of the same compound?
**A.** 93.6 µM

**Q.** And the GI50 (HCT-15 colon)?
**A.** 33.7 µM

**Q.** And the GI50 (A498 renal)?
**A.** 39.4 µM

**Q.** And the GI50 (SW-620 colon)?
**A.** 61.6 µM

**Q.** And the GI50 (ACHN renal)?
**A.** 19.9 µM

**Q.** What about the TGI (ACHN renal) of the same compound?
**A.** 63.4 µM

**Q.** And the GI50 (HL-60(TB) leukemia)?
**A.** 1.27 µM

**Q.** What about the TGI (HL-60(TB) leukemia) of the same compound?
**A.** 2.85 µM

**Q.** What about the GI50 (RXF 393 renal) of the same compound?
**A.** 53.9 µM

**Q.** And the GI50 (M14 melanoma)?
**A.** 24.8 µM

**Q.** What about the GI50 (LOX IMVI melanoma) of the same compound?
**A.** 24.9 µM

**Q.** And the GI50 (SF-268 CNS)?
**A.** 9.43 µM

**Q.** What about the GI50 (OVCAR-3 ovarian) of the same compound?
**A.** 43.3 µM

**Q.** And the GI50 (KM12 colon)?
**A.** 93.6 µM

**Q.** And the GI50 (CAKI-1 renal)?
**A.** 17.8 µM

**Q.** And the GI50 (U251 glioblastoma)?
**A.** 20.7 µM

**Q.** And the GI50 (HT29 colon)?
**A.** 59.4 µM

**Q.** What about the GI50 (OVCAR-5 ovarian) of the same compound?
**A.** 70.4 µM

**Q.** What about the GI50 (RPMI-8226 leukemia) of the same compound?
**A.** 12 µM

**Q.** And the TGI (RPMI-8226 leukemia)?
**A.** 36.4 µM

**Q.** And the GI50 ([…]-0 renal)?
**A.** 32.7 µM

**Q.** What about the GI50 (BT-549 breast) of the same compound?
**A.** 29 µM

**Q.** What about the GI50 (NCI-H522 lung) of the same compound?
**A.** 45.9 µM

**Q.** And the GI50 (OVCAR-8 ovarian)?
**A.** 28 µM

**Q.** And the GI50 (NCI-H23 lung)?
**A.** 17.3 µM

**Q.** What about the TGI (NCI-H23 lung) of the same compound?
**A.** 99.5 µM

**Q.** What about the GI50 (DU-145 prostate) of the same compound?
**A.** 7.82 µM

**Q.** And the TGI (DU-145 prostate)?
**A.** 98.9 µM

**Q.** And the GI50 (SF-539 CNS)?
**A.** 20.2 µM

**Q.** What about the TGI (SF-539 CNS) of the same compound?
**A.** 92.8 µM

**Q.** And the GI50 (HOP-62 NSCLC)?
**A.** 8.65 µM

**Q.** What about the TGI (HOP-62 NSCLC) of the same compound?
**A.** 31.8 µM

**Q.** And the GI50 (UO-31 renal)?
**A.** 74.4 µM
